{"source": "patent US12655116B2", "about": "“Substituted isophthalic acid diamides” (Bayer Aktiengesellschaft, priority 2020, dated 2026)", "key": {"ABUTH [1]": {"tested_on": "ABUTH", "assay": "Pre-emergence herbicidal action against ABUTH", "assay_type": "in vivo, Abutilon theophrasti", "settings": "Abutilon theophrasti, 504 h, 80 g/ha, scored visually after 3 weeks vs untreated controls (100% = plants have died, 0% = like control plants)", "summary_of_the_method": "(§1)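 Greenhouse pots of sandy loam held seeds covered with soil, onto which the compound was applied before emergence. An aqueous suspension or emulsion of WP or EC was used at 600 to 800 l/ha with 0.2% wetting agent. Percent damage was judged visually at 3 weeks.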"}, "ALOMY [2]": {"tested_on": "ALOMY", "assay": "Pre-emergence herbicidal action against ALOMY", "assay_type": "in vivo, Alopecurus myosuroides", "settings": "Alopecurus myosuroides, 504 h, pre-emergence", "summary_of_the_method": "as §1"}, "AMARE [3]": {"tested_on": "AMARE", "assay": "Pre-emergence herbicidal action against AMARE", "assay_type": "in vivo, Amaranthus retroflexus", "settings": "Amaranthus retroflexus, 504 h, scored visually after 3 weeks vs untreated controls, 100% = plants have died, 0% = like control plants", "summary_of_the_method": "as §1"}, "AVEFA": {"tested_on": "AVEFA", "assay": "Pre-emergence herbicidal action against AVEFA", "assay_type": "in vivo, Avena fatua", "settings": "Avena fatua, 504 h; 80 g/ha, pre-emergence", "summary_of_the_method": "as §1"}, "ECHCG [4]": {"tested_on": "ECHCG", "assay": "Pre-emergence herbicidal action against ECHCG", "assay_type": "in vivo, Echinochloa crus-galli", "settings": "Echinochloa crus-galli, 504 h, 80 g/ha", "summary_of_the_method": "as §1"}, "LOLRI": {"tested_on": "LOLRI", "assay": "Pre-emergence herbicidal action against LOLRI", "assay_type": "in vivo, Lolium rigidum", "settings": "Lolium rigidum, 504 h, 80 g/ha", "summary_of_the_method": "as §1"}, "MATIN [5]": {"tested_on": "MATIN", "assay": "Pre-emergence herbicidal action against MATIN", "assay_type": "in vivo, Matricaria inodora", "settings": "Tripleurospermum inodorum, 504 h", "summary_of_the_method": "as §1"}, "PHBPU [6]": {"tested_on": "PHBPU", "assay": "Pre-emergence herbicidal action against PHBPU", "assay_type": "in vivo, Pharbitis purpurea", "settings": "Ipomoea purpurea, 504 h, dosage 80 g/ha", "summary_of_the_method": "as §1"}, "SETVI [7]": {"tested_on": "SETVI", "assay": "Pre-emergence herbicidal action against SETVI", "assay_type": "in vivo, Setaria viridis", "settings": "Setaria viridis, 504 h, dosage 80 g/ha", "summary_of_the_method": "as §1"}, "VERPE": {"tested_on": "VERPE", "assay": "Pre-emergence herbicidal action against VERPE", "assay_type": "in vivo, Veronica persica", "settings": "Veronica persica, 504 h, dosage 80 g/ha", "summary_of_the_method": "as §1"}, "VIOTR [8]": {"tested_on": "VIOTR", "assay": "Pre-emergence herbicidal action against VIOTR", "assay_type": "in vivo, Viola tricolor", "settings": "Viola tricolor, 504 h", "summary_of_the_method": "as §1"}, "DIGSA": {"tested_on": "DIGSA", "assay": "Pre-emergence herbicidal action against DIGSA", "assay_type": "in vivo, Digitaria sanguinalis", "settings": "Digitaria sanguinalis, 504 h", "summary_of_the_method": "as §1"}, "ABUTH [9]": {"tested_on": "ABUTH", "assay": "Post-emergence herbicidal action against ABUTH", "assay_type": "in vivo, Abutilon theophrasti", "settings": "Abutilon theophrasti, 504 h, dosage 20 g/ha, visual assessment about 3 weeks after treatment vs untreated controls", "summary_of_the_method": "(§2)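 A WP or EC formulation diluted in water with 0.2% wetting agent was sprayed at 600 to 800 l/ha onto one-leaf-stage plants grown in sandy loam. About 3 weeks later, action was rated visually in percent, 100% being dead plants.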"}, "ALOMY [10]": {"tested_on": "ALOMY", "assay": "Post-emergence herbicidal action against ALOMY", "assay_type": "in vivo, Alopecurus myosuroides", "settings": "Alopecurus myosuroides, 504 h, dosage 20 g/ha, visual assessment about 3 weeks after treatment vs untreated controls", "summary_of_the_method": "as §2"}, "AMARE [11]": {"tested_on": "AMARE", "assay": "Post-emergence herbicidal action against AMARE", "assay_type": "in vivo, Amaranthus retroflexus", "settings": "Amaranthus retroflexus, 504 h, 20 g/ha, visual assessment about 3 weeks after treatment, 100% = plants have died, 0% = like control plants", "summary_of_the_method": "as §2"}, "ECHCG [12]": {"tested_on": "ECHCG", "assay": "Post-emergence herbicidal action against ECHCG", "assay_type": "in vivo, Echinochloa crus-galli", "settings": "Echinochloa crus-galli, 504 h, dosage 20 g/ha", "summary_of_the_method": "as §2"}, "MATIN [13]": {"tested_on": "MATIN", "assay": "Post-emergence herbicidal action against MATIN", "assay_type": "in vivo, Matricaria inodora", "settings": "Tripleurospermum inodorum, 504 h", "summary_of_the_method": "as §2"}, "PHBPU [14]": {"tested_on": "PHBPU", "assay": "Post-emergence herbicidal action against PHBPU", "assay_type": "in vivo, Pharbitis purpurea", "settings": "Ipomoea purpurea, 504 h, dosage 20 g/ha", "summary_of_the_method": "as §2"}, "POLCO": {"tested_on": "POLCO", "assay": "Post-emergence herbicidal action against POLCO", "assay_type": "in vivo, Polygonum convolvulus", "settings": "Fallopia convolvulus, 504 h, dosage 20 g/ha", "summary_of_the_method": "as §2"}, "SETVI [15]": {"tested_on": "SETVI", "assay": "Post-emergence herbicidal action against SETVI", "assay_type": "in vivo, Setaria viridis", "settings": "Setaria viridis, 504 h", "summary_of_the_method": "as §2"}, "VIOTR [16]": {"tested_on": "VIOTR", "assay": "Post-emergence herbicidal action against VIOTR", "assay_type": "in vivo, Viola tricolor", "settings": "Viola tricolor, 504 h", "summary_of_the_method": "as §2"}}}
{"smiles": "CCn1nnnc1NC(=O)c1ccc(Br)c(C(=O)NC2CC2)c1Cl", "note": "[Example 2-179]", "values": [{"measurement": "pest or weed control at 80 g/ha", "setting": "ABUTH [1]", "value": 100, "unit": "%"}, {"measurement": "pest or weed control at 80 g/ha", "setting": "ALOMY [2]; 80 g/ha, scored visually after 3 weeks vs untreated controls (100% = plants have died, 0% = like control plants)", "value": 100, "unit": "%"}, {"measurement": "pest or weed control at 20 g/ha", "setting": "ALOMY [2]; 20 g/ha, scored visually after 3 weeks, 100% = plants have died, 0% = like control plants", "value": 80, "unit": "%"}, {"measurement": "pest or weed control at 20 g/ha", "setting": "AMARE [3]; 20 g/ha", "value": 100, "unit": "%"}, {"measurement": "pest or weed control at 80 g/ha", "setting": "AMARE [3]; 80 g/ha", "value": 100, "unit": "%"}, {"measurement": "pest or weed control at 80 g/ha", "setting": "AVEFA", "value": 100, "unit": "%"}, {"measurement": "pest or weed control at 80 g/ha", "setting": "ECHCG [4]", "value": 100, "unit": "%"}, {"measurement": "pest or weed control at 80 g/ha", "setting": "LOLRI", "value": 80, "unit": "%"}, {"measurement": "pest or weed control at 20 g/ha", "setting": "MATIN [5]; dosage 20 g/ha", "value": 100, "unit": "%"}, {"measurement": "pest or weed control at 80 g/ha", "setting": "MATIN [5]; dosage 80 g/ha", "value": 100, "unit": "%"}, {"measurement": "pest or weed control at 80 g/ha", "setting": "PHBPU [6]", "value": 80, "unit": "%"}, {"measurement": "pest or weed control at 80 g/ha", "setting": "SETVI [7]", "value": 100, "unit": "%"}, {"measurement": "pest or weed control at 80 g/ha", "setting": "VERPE", "value": 90, "unit": "%"}, {"measurement": "pest or weed control at 20 g/ha", "setting": "VIOTR [8]; dosage 20 g/ha", "value": 100, "unit": "%"}, {"measurement": "pest or weed control at 80 g/ha", "setting": "VIOTR [8]; dosage 80 g/ha", "value": 100, "unit": "%"}, {"measurement": "pest or weed control at 20 g/ha", "setting": "DIGSA; dosage 20 g/ha", "value": 100, "unit": "%"}, {"measurement": "pest or weed control at 80 g/ha", "setting": "DIGSA; dosage 80 g/ha", "value": 100, "unit": "%"}, {"measurement": "pest or weed control at 20 g/ha", "setting": "ABUTH [9]", "value": 90, "unit": "%"}, {"measurement": "pest or weed control at 20 g/ha", "setting": "ALOMY [10]", "value": 90, "unit": "%"}, {"measurement": "pest or weed control at 20 g/ha", "setting": "AMARE [11]", "value": 100, "unit": "%"}, {"measurement": "pest or weed control at 20 g/ha", "setting": "ECHCG [12]", "value": 80, "unit": "%"}, {"measurement": "pest or weed control at 5 g/ha", "setting": "MATIN [13]; dosage 5 g/ha", "value": 80, "unit": "%"}, {"measurement": "pest or weed control at 20 g/ha", "setting": "MATIN [13]; dosage 20 g/ha", "value": 90, "unit": "%"}, {"measurement": "pest or weed control at 20 g/ha", "setting": "PHBPU [14]", "value": 80, "unit": "%"}, {"measurement": "pest or weed control at 20 g/ha", "setting": "POLCO", "value": 90, "unit": "%"}, {"measurement": "pest or weed control at 5 g/ha", "setting": "SETVI [15]; dosage 5 g/ha", "value": 90, "unit": "%"}, {"measurement": "pest or weed control at 20 g/ha", "setting": "SETVI [15]; dosage 20 g/ha", "value": 90, "unit": "%"}, {"measurement": "pest or weed control at 5 g/ha", "setting": "VIOTR [16]; 5 g/ha", "value": 90, "unit": "%"}, {"measurement": "pest or weed control at 20 g/ha", "setting": "VIOTR [16]; 20 g/ha", "value": 100, "unit": "%"}]}
